Assay results published in ChEMBL document CHEMBL1201862, “PubChem BioAssay data set” (2004).
Activity calls are given as the source filed them.

What was measured:
[1] = target: Voltage-dependent T-type calcium channel subunit alpha-1H (Homo sapiens, UniProt O95180); assay: human CACNA1H calcium influx blockade – cell-based, synthetic library set 1, calcium flux (AID 493022); type: functional
[2] = target: Beta-galactosidase (Escherichia coli, UniProt Q8VNN2); assay: detection-enzyme interference by beta-gal modulators – biochemical, E. coli enzyme, set 3, artefact control for CCR6 antagonist project, dose response (AID 504712); type: functional
[3] = target: C-C chemokine receptor type 6 (Homo sapiens, UniProt P51684); assay: antagonism of CCR6 beta-arrestin recruitment – cell-based, luminescent beta-arrestin readout, dose response (AID 504728); type: functional
[4] = viability loss in THP-1 monocytes – THP-1 cells, cytotoxicity control for Vif-APOBEC3G degradation inhibitor project, dose response (AID 1117359); type: functional; conditions: THP-1
[5] = target: G-protein coupled receptor 55 (Homo sapiens, UniProt Q9Y2T6); assay: SAR Analysis of Selective Antagonists of GPR55 using an Image-Based Assay - Set 3. [Related pubchem assays (depositor defined):AID2058, AID2079]; type: functional
[6] = target: G-protein coupled receptor 35 (Homo sapiens, UniProt Q9HC97); assay: SAR analysis of Antagonists of the GPR35 Receptor using an Image-Based Assay - Set 5. [Related pubchem assays (depositor defined):AID2058, AID2079]; type: functional
[7] = target: T1, Protein RecA (Mycobacterium tuberculosis, UniProt P9WHJ3); assay: Fluorescence Cell-Free Homogeneous Dose Retest to Identify Inhibitors of RecA-Intein Splicing Activity. [Related pubchem assays (depositor defined):AID2097, AID2223, AID489010, AID492950]; type: functional
T1 sequence (P9WHJ3 whole entry): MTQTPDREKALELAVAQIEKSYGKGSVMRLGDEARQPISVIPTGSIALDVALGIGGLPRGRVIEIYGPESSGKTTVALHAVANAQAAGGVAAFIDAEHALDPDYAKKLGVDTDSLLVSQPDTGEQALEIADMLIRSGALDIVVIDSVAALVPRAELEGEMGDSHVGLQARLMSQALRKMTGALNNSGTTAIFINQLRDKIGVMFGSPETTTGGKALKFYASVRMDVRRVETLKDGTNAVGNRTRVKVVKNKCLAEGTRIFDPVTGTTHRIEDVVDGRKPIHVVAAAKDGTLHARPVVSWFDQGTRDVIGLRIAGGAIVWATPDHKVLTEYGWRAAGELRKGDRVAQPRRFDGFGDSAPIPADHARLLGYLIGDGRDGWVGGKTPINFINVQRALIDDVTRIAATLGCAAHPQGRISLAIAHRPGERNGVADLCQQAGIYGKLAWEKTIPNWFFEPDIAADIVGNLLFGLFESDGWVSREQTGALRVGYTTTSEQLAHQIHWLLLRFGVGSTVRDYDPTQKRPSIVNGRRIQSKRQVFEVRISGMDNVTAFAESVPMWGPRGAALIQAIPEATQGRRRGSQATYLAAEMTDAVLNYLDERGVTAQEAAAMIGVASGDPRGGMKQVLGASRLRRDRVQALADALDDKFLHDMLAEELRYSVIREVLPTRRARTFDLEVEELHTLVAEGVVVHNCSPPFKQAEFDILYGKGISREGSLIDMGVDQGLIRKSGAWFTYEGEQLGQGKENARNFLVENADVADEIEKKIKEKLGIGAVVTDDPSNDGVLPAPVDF

[8] = target: Neurotensin receptor type 1 (Homo sapiens, UniProt P30989); type: functional;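 also: Image-based confirmatory dose-response assay measuring agonist activity at NTR1; NTR1-expressing U2OS osteosarcoma cells imaged for beta-arrestin GFP spot formation; agonist potency where compounds increase beta-arrestin recruitment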
[9] = target: T2, Replicative DNA helicase DnaB (Mycobacterium tuberculosis, UniProt P9WMR3); assay: DnaB intein splicing inhibitors, dose response, biochemical, cell-free fluorescence (AID 449749); type: functional
T2 sequence (P9WMR3 whole entry): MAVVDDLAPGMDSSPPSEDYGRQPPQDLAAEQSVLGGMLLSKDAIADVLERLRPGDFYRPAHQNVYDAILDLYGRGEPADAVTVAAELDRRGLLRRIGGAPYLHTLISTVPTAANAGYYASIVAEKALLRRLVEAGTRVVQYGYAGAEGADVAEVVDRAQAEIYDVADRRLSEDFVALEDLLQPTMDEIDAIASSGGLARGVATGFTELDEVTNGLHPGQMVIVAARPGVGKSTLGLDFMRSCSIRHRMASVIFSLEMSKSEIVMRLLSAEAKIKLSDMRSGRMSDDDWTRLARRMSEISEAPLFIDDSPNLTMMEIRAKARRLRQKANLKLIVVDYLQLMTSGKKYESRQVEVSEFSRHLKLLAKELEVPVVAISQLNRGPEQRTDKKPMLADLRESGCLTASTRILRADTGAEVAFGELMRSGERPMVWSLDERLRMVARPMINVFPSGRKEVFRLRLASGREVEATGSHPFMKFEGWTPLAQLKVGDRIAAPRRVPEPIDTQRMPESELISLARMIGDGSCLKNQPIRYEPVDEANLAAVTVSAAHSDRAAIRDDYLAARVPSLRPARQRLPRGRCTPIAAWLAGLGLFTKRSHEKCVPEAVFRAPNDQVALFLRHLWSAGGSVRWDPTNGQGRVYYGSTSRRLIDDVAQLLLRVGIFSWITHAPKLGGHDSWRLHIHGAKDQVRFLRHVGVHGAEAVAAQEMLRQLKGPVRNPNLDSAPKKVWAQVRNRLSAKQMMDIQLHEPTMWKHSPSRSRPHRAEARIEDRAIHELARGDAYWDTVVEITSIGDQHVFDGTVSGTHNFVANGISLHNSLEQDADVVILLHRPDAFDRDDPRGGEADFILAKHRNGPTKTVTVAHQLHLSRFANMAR

[10] = tested on: HEK293; assay: cells; type: functional, cell-based; conditions: Homo sapiens
[11] = NIH-3T3 fibroblast cytotoxicity, dose response, cytotoxicity control, cell-based, fluorescence, Alamar Blue, secondary assay (AID 2327); type: functional;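 also: NIH-3T3 mouse fibroblasts cultured with fluconazole at 8 µg/mL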
[12] = fluconazole-exposed Candida albicans growth modulators – fluorescence, retest, confirmation (AID 2467); type: functional, cell-based
[13] = target: NACHT, LRR and PYD domains-containing protein 1 (Homo sapiens, UniProt Q9C000); assay: NALP1 inhibitors in yeast, dose response, luminescent (AID 488860); type: functional
[14] = tested on: HEK293; assay: NOD2 signaling inhibitors in MDP-stimulated cells, cell-based, uHTS, luminescence (AID 2001); type: functional; conditions: Homo sapiens
[15] = tested on: HEK293; assay: inhibition of NOD1-driven NF-kB reporter – cell-based, luminescence, uHTS, primary screen (AID 1578); type: functional; conditions: Homo sapiens
[16] = tested on: HEK293; assay: cells; type: functional, cell-based; conditions: Homo sapiens; remark: listed apart in the source
[17] = target: Nucleotide-binding oligomerization domain-containing protein 2 (Homo sapiens, UniProt Q9HC29); assay: inhibition of NOD2-driven NF-kB reporter – cell-based, luminescence, uHTS, HEK293 (AID 1566); type: functional
[18] = tested on: HEK293; assay: cells; type: functional, cell-based; conditions: Homo sapiens; remark: listed apart in the source
[19] = target: FAD-linked sulfhydryl oxidase ALR (Homo sapiens, UniProt P55789); assay: ALR-catalysed DTT oxidation blockers – biochemical, H2O2 detection, luminescence, cherry-pick, dose response (AID 493248)
[20] = tested on: Saccharomyces cerevisiae; assay: S. cerevisiae Caspase-1/ASC signal blockers IC50, NALP1 inhibitor project selectivity test (AID 488863); type: functional, organism-based
[21] = target: T3, Microphthalmia-associated transcription factor (Homo sapiens, UniProt O75030); assay: reducers of TRPM1 reporter luminescence, concentration series – cell-based, SK-MEL-5, cherry-picked, set 3, MITF inhibitor project, dose response (AID 493073); type: functional;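 also: SK-MEL-5 melanoma cells with luciferase driven by the MITF target TRPM1 promoter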
T3 sequence (O75030 whole entry): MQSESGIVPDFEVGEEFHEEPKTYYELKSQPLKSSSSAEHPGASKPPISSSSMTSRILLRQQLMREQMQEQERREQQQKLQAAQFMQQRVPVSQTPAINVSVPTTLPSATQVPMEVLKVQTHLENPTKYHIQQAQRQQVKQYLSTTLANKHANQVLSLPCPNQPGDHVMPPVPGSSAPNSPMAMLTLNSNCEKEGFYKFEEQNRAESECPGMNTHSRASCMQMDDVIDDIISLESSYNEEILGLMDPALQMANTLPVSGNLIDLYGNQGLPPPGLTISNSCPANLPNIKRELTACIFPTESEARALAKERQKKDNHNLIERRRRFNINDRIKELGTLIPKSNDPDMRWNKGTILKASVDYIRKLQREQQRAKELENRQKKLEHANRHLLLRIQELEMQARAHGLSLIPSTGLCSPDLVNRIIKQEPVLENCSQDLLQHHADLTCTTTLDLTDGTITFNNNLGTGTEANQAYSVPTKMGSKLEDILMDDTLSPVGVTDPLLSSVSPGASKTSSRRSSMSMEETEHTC

[22] = target: Cystic fibrosis transmembrane conductance regulator/Golgi-associated PDZ and coiled-coil motif-containing protein (Homo sapiens, UniProt P13569+Q9HD26); assay: potency against CAL PDZ-peptide interaction – biochemical, fluorescence polarization, Cerulean-tagged CAL PDZ, cherry-picks, dose response (AID 504773)
[23] = target: DNA dC->dU-editing enzyme APOBEC-3A (Homo sapiens, UniProt P31941); assay: A3A deaminase inhibition for selectivity – biochemical, dose response (AID 504722); type: functional
[24] = target: DNA dC->dU-editing enzyme APOBEC-3G (Homo sapiens, UniProt Q9HC16); assay: Dose Response confirmation of small molecule APOBEC3G DNA Deaminase Inhibitors via a fluorescence-based single-stranded DNA deaminase assay. [Related pubchem assays (depositor defined):AID493012, AID493028]; type: functional
[25] = target: X-box-binding protein 1 (Homo sapiens, UniProt P17861); type: functional, Cricetulus griseus;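 also: confirmatory dose-response counter-screen serving a CHOP assay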
X-box-binding protein 1, sequence (P17861 whole entry): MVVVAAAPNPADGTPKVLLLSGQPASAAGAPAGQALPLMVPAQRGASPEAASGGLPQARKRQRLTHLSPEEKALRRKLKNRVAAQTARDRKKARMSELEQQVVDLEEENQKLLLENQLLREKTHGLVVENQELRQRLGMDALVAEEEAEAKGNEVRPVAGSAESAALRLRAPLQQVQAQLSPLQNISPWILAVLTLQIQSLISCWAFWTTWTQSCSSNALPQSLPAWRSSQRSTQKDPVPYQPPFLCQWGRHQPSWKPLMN

FAD-linked sulfhydryl oxidase ALR, sequence (P55789 whole entry): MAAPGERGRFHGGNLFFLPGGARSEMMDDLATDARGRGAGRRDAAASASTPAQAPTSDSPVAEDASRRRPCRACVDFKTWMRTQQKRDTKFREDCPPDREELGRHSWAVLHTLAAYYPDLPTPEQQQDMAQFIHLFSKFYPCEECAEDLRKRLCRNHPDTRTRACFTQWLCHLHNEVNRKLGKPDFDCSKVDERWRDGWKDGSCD
Beta-galactosidase, sequence (Q8VNN2 whole entry): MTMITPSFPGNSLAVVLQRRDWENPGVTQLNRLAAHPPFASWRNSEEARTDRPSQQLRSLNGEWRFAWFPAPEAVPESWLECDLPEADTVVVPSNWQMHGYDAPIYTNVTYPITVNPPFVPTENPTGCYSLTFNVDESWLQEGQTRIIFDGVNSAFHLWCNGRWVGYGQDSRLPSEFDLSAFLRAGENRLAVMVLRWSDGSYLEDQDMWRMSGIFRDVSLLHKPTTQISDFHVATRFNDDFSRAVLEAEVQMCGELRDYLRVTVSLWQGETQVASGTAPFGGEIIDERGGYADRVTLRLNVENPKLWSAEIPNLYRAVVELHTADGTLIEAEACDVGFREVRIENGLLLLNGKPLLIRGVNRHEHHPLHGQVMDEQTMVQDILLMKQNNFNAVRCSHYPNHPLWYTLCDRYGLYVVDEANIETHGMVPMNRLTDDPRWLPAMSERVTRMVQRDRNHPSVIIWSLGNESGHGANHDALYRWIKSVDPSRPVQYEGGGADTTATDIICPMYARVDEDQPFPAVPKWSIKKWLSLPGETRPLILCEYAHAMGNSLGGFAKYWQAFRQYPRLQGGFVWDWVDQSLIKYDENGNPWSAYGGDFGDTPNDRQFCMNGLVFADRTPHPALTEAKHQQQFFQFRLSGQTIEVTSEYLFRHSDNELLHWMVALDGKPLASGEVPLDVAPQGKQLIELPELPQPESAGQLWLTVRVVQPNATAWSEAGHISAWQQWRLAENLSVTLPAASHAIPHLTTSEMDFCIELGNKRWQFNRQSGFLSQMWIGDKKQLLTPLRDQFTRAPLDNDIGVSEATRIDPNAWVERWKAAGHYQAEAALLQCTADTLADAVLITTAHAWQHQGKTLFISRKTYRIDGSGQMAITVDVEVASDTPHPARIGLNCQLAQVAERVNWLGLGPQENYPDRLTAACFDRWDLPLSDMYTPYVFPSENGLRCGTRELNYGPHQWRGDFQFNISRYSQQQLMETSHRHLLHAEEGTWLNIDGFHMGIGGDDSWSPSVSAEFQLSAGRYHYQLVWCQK
DNA dC->dU-editing enzyme APOBEC-3A, sequence (P31941 whole entry): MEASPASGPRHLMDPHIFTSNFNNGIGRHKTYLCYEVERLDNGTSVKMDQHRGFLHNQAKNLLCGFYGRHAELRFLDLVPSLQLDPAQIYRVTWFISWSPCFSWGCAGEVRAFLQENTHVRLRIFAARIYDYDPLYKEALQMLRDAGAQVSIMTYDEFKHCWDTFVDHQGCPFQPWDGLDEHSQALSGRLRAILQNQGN
C-C chemokine receptor type 6, sequence (P51684 whole entry): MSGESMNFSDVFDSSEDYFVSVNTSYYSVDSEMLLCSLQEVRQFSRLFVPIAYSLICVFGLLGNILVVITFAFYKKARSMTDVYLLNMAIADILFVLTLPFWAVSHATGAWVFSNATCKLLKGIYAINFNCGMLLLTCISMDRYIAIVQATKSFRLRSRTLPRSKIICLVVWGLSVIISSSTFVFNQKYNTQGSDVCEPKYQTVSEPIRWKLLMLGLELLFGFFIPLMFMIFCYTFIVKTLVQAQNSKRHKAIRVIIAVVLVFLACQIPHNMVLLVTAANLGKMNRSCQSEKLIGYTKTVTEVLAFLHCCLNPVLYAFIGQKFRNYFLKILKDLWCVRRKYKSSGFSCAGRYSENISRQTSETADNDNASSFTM
G-protein coupled receptor 55, sequence (Q9Y2T6 whole entry): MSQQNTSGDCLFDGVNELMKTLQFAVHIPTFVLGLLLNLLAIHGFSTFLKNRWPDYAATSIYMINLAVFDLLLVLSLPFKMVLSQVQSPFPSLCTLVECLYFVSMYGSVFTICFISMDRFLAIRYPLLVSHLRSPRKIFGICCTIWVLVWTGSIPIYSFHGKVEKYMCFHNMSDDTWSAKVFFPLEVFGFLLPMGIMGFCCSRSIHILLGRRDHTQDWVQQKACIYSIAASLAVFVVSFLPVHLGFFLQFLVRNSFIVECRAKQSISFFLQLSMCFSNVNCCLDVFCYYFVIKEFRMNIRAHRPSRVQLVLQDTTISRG
Neurotensin receptor type 1, sequence (P30989 whole entry): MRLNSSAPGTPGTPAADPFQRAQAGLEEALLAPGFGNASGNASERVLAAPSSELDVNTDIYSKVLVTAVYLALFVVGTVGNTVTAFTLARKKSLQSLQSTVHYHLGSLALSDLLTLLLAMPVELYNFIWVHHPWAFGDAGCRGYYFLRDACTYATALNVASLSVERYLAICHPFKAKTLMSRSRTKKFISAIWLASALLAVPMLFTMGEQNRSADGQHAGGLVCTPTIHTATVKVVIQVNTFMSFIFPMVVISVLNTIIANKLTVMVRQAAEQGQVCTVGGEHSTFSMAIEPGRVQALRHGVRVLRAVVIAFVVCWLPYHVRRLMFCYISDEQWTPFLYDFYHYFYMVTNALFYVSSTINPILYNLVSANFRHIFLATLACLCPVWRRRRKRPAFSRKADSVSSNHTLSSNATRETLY
NACHT, LRR and PYD domains-containing protein 1, sequence (Q9C000 1-1212 limits assumed): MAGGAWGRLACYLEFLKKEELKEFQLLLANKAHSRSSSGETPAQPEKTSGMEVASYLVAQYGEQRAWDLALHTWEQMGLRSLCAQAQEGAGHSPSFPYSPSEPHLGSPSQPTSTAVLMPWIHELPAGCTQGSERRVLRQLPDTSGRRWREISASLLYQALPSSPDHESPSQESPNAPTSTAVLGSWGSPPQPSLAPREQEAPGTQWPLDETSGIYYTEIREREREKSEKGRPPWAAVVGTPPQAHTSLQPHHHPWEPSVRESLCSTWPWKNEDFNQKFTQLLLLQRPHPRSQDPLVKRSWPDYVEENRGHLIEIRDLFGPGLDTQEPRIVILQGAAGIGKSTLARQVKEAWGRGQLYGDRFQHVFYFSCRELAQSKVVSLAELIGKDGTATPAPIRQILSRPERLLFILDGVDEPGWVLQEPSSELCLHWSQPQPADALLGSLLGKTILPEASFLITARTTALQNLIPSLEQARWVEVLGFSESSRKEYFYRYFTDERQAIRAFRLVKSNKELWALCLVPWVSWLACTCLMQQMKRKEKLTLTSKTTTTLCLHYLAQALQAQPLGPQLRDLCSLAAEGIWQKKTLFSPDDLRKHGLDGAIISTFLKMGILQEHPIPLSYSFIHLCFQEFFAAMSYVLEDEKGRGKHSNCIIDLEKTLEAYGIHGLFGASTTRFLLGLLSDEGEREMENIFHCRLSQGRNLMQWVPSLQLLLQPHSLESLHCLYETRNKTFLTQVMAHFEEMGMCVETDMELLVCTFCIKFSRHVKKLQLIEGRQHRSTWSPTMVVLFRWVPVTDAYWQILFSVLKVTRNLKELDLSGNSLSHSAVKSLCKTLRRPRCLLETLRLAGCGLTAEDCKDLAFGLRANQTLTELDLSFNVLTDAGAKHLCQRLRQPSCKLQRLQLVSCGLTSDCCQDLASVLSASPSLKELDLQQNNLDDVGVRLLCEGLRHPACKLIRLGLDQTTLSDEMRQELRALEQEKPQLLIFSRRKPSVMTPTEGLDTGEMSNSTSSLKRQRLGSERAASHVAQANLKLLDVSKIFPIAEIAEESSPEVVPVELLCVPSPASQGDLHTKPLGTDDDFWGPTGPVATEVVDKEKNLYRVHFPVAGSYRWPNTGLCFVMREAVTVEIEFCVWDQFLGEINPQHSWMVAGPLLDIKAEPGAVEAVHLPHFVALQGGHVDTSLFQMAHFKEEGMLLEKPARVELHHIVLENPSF
NACHT, LRR and PYD domains-containing protein 1, sequence (Q9C000 1213-1473 limits assumed): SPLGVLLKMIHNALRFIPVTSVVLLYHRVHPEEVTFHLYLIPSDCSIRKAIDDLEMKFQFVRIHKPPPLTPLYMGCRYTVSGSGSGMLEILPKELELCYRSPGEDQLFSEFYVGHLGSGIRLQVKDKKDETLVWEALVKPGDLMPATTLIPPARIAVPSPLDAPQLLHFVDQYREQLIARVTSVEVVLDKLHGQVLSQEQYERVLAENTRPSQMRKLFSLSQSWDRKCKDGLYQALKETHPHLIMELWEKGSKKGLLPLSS
DNA dC->dU-editing enzyme APOBEC-3G, sequence (Q9HC16 whole entry): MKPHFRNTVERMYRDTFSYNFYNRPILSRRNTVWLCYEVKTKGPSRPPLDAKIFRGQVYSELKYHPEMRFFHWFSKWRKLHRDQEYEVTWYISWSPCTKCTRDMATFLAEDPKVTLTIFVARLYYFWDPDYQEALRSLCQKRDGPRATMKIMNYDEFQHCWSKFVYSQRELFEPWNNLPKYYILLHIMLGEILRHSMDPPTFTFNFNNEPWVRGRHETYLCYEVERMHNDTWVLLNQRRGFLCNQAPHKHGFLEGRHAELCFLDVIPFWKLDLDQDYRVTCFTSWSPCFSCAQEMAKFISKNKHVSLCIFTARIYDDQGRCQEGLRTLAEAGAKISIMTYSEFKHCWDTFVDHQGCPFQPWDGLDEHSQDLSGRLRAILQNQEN
G-protein coupled receptor 35, sequence (Q9HC97 whole entry): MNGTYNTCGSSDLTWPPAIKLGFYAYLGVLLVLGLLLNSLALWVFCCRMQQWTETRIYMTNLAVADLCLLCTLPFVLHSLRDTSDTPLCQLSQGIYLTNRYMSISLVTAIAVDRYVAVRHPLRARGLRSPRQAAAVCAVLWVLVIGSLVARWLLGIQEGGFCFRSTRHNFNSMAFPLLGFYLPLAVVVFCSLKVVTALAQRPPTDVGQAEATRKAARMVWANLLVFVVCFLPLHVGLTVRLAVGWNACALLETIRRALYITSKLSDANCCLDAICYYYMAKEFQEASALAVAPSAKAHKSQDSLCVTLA

SMILES: CC(Oc1ccccc1)C(=O)Nc1nnc(-c2ccc3c(c2)CCCC3)o1 (stereo unspecified)
- EC50 [1]: 1.3 µM (active)

SMILES: CC(=O)OC(C)C1C2=C(C(=O)CC1(C)O)C(=O)c1c(ccc(-c3ccc4c(c3O)C(=O)C3=C(C4=O)C(C(C)OC(C)=O)C(C)(O)CC3=O)c1O)C2=O (stereo unspecified)
- IC50 [2]: > 66.6 µM (inactive)
- IC50 [3]: > 66.6 µM (inactive)
- CC50 [4]: 19.3 µM (active)

SMILES: COC(=O)c1cnn(-c2ccc(F)cc2F)c1/C=N/NC(=S)Nc1ccccc1
- IC50 [5]: > 32 µM (inactive)
- IC50 [6]: 0.379 µM (active)

SMILES: CSc1nnc(NC(=O)C23CC4CC(CC(C4)C2)C3)s1
- EC50 [7]: > 380 µM (inactive)
- EC50 [8]: 8.21 µM (active)
- AC50 [9]: > 380 µM (inactive)

SMILES: Nc1ccc(Oc2cccc(Oc3ccc(N)cc3)c2)cc1
- IC50 [10]: > 20 µM (inactive)
- EC50 [11]: > 150 µM (inactive)
- EC50 [12]: > 38 µM (not active)
- IC50 [13]: 15.3 µM (active)
- IC50 [14]: 3.05 µM (active)
- EC50 [15]: 5.94 µM (active)
- IC50 [16]: 1.61 µM (active)
- EC50 [17]: 1.85 µM (active)
- IC50 [18]: 19.9 µM (active)
- AC50 [19]: 0.677 µM (active)
- IC50 [20]: 10.2 µM (active)
- AC50 [21]: 1.1 µM (active)

SMILES: Nc1ncnc2c1C(c1ccccc1)c1c(ccc3ccccc13)O2 (stereo unspecified)
- AC50 [22]: 11.2 µM (active)

SMILES: S=c1[nH]nc(-c2ccco2)n1C1CCCCC1
- IC50 [23]: > 100 µM (inactive)
- AC50 [19]: 5.64 µM (active)
- IC50 [24]: 4.08 µM (active)

SMILES: CNc1nc(Sc2cccc(C(F)(F)F)c2)cc(C(F)(F)F)n1
- Absolute IC50 (XBP1) [25]: 10 µM
